The molecules below were run on P. falciparum 3D7 growth, pLDH absorbance (assay: blood-stage malaria parasite growth potency – strain 3D7, dose response (AID 2305)).

Structure (SMILES) | IC50 [nM]
Oc1cc2c(cc1CN1CCN(Cc3ccccc3)CC1)CCC2 | 720
CCn1c(-c2nonc2N)nc2c(-c3cccc(NC(=O)Nc4ccccc4OC)c3)ncc(OCCCN)c21 | 1000
CCCCNCc1ccc(-c2nc(CN(CCCn3ccnc3)C(=O)C3COc4ccccc4O3)cs2)cc1 (centres undefined) | 890
Cc1[nH]c(C)c(-c2ccc(-c3ccccc3C(F)(F)F)nc2)c(=O)c1Br | 170
Cc1c(S(=O)(=O)Nc2cccc(CCN3CCCCC3CCN3CCCC3)c2)sc2ccc(Cl)cc12 (centres undefined) | 930
CN(Cc1ccccc1)C(=O)CCNS(=O)(=O)c1cc(Br)cnc1N | 1130
O=C(C1CCN(C(c2ccccc2)c2ccc(Cl)c(Cl)c2)CC1)N1CC=CC1 (centres undefined) | 720
C#CCN(Cc1ccc2nc(N)[nH]c(=O)c2c1)c1ccc(C(=O)N[C@@H](CCC(=O)O)C(=O)O)cc1 | 220
CCCN(CCC)CCCOc1ccc(C(=O)c2c(-c3ccc(OCCCN(CCC)CCC)cc3)oc3ccc(Cl)cc23)cc1 | 340
CC(C)NCC(O)COc1ccc(Cc2ccc(OCC(O)CNC(C)C)cc2)cc1 (centres undefined) | 650
Oc1c(CNC2CCCCC2)cc(Cl)c2ccccc12 | 840
CCNc1cc(C(=O)N[C@@H](Cc2ccccc2)[C@H](O)CNC2CCC(F)(F)CC2)c(F)c(N2CCCCS2(=O)=O)c1 | 210
CC(C)c1cn2c3c(cc(C(=O)N[C@@H](Cc4ccccc4)[C@H](O)CNC4CCCCC4)cc13)N(C)S(=O)(=O)CC2 | 30
O=C(NCCc1ccccc1)N(Cc1ccccc1-c1cccc(CNCc2ccc3c(c2)OCO3)c1)C1CCN(Cc2ccccc2)CC1 | 990
CC(Cc1ccc(NC(=O)c2ccc(CNCCCCc3ccccc3)cc2)cc1)NCCc1cccc(Cl)c1 (centres undefined) | 330
CNC(=O)Cc1ccc(C(=O)Nc2cccc(-c3cccc(-c4nc5c(C)cccc5[nH]4)c3)c2)cc1 | 530
COc1cc(CCNc2nc(NCc3cccc4ccccc34)nc(N3CCC(N)CC3)n2)ccc1O | 790
CO/C(=C\C=C\c1cc2cc(Cl)c(Cl)cc2[nH]1)C(=O)NCCCN1CCN(c2cccc(O)c2)CC1 | 580
COc1cc(CNCCCNc2nc3ccsc3c(=O)[nH]2)c2[nH]cc(Cl)c2c1 | 890
N=c1n(CCN2CCCCC2)c2ccccc2n1CC(O)c1cccc(Br)c1 (centres undefined) | 1140
CC[C@H]1CN2CC[C@H]1C[C@@H]2[C@@H](O)c1cc(Cl)nc2ccc(OC)cc12 | 60
CC(CCc1ccccc1)NCC(O)c1ccc2c3c(cccc13)C(=O)N2C (centres undefined) | 810
OCC1CCN(Cc2cccc(C#Cc3cc4ncnc(Nc5ccc(OCc6cccc(F)c6)c(Cl)c5)c4s3)n2)CC1 | 550
Cc1c(C)n(C2CCCCC2)c2ncnc(OC3CCN(CC(=O)NC4CC4)CC3)c12 | 1240

Structure (SMILES) | IC50 [nM]
O=C(Cn1c(CCc2cccc(F)c2F)cc(=O)c2cccnc21)N(CCn1ccnc1)Cc1ccc(-c2ccc(C(F)(F)F)cc2)cc1 | 670
CN(CC(=O)Nc1ccc(F)c(F)c1F)c1ncnc2sc(-c3ccccc3)cc12 | 870
COC(=O)c1ccc(CC(C)NCC(O)c2ccccc2Cl)cc1 (centres undefined) | 1010
O=C(Nc1ccccc1)N(Cc1cccc(-c2ccc(CNCc3ccc4c(c3)OCO4)cc2)c1)C1CCN(Cc2ccccc2)CC1 | 330
O=C(c1ccc(Cl)cc1)C1CCCN(C2CCN(CCc3ccccc3)CC2)C1 (centres undefined) | 1450
O=C1COC2(CN1C1CCN(Cc3ccc(O)c(Cl)c3)C1)c1ccccc1-c1ccccc12 (centres undefined) | 960
Cc1c(C(=O)Nc2cc(Sc3ccc(F)cc3)cc([N+](=O)[O-])c2)sc2ncn(Cc3cccc(F)c3)c(=O)c12 | 720
N#Cc1cccc(-c2nc(NCc3cccc(C(F)(F)F)c3)nn2-c2cccc(C(F)(F)F)c2)c1 | 590
CCOC(=O)c1c(NC(=O)c2ccccc2)sc2c(O)c(CNC3CCCCC3)ccc12 | 750
CN1CCN(Cc2nc(-c3ccc4c(Nc5ccc(F)c(O)c5)ccnc4c3)cs2)CC1 | 170
CCNc1cc(-c2cccc(OC)c2)nc(Nc2ccc(F)cc2)n1 | 1270
CN1CC=C(c2c[nH]c3ccc(OC(=O)c4ccccc4)cc23)C1 | 800
O=C(NCCCCN1CCC(c2ccc3c(c2OCCO)CCCC3)CC1)c1ccc(-c2ccc(C(F)(F)F)cc2)cc1 | 860
CC(C)n1ncc2c(C(=O)N3CCCC4CCCCC43)cc(C3CC3)nc21 (centres undefined) | 680
O=C(NC1CCCC1)c1ccc(N2CCC(NCc3cc4cc(Cl)ccc4[nH]3)CC2)cc1 | 1220
CC(C)(C)c1ccc(CNC(=O)c2cc(CNC3CCNC3)ccc2O)cc1 (centres undefined) | 800
N#Cc1ccc(N2CCN(Cc3ccc(-c4ccc(-c5nc6ccc(C(F)(F)F)cc6[nH]5)cc4)cc3)CC2)nc1 | 960
O=C(Nc1ccc(Cl)cc1)Nc1cccc(-c2cccc(-c3nc4ccc(C(F)(F)F)cc4[nH]3)c2)c1 | 230
CCOc1cc(C(=O)NC2CCN(Cc3ccccc3)C2)ccc1-c1nc2ccc(Cl)cc2[nH]1 (centres undefined) | 1010
CCNc1cc(C(=O)N[C@@H](Cc2ccccc2)[C@H](O)CNC(C)(C)CCCC(C)C)cc(N2CCCCS2(=O)=O)c1 | 450
CCOc1c(Br)cc(Br)cc1CNCCCCNc1nc2ccccc2[nH]1 | 390
CN(C)CCCNCc1ccc(-c2ccc(C(F)(F)F)cc2)cc1 | 870
COc1ccc2nccc([C@@H](O)CN3CCC(NCc4nc5ccc(F)cc5[nH]4)CC3)c2c1 | 730
C[C@@H]1CN(c2ccc3occ(C(=O)Nc4ccc(-c5ccncc5)c(Cl)c4)c3c2)C[C@H](C)N1C | 850

Structure (SMILES) | IC50 [nM]
COc1ccc(NC(=O)CCNc2cc(C)nc(NCCc3ccccc3)n2)cc1 | 1160
COc1ccc(-c2cc(-c3nc4ccc(CN)cc4[nH]3)c(=O)n(C)c2)cc1OC | 1400
COc1ccc2c(c1C1CCN(CCCCNC(=O)c3ccc(NC(=O)c4ccc(Cl)cc4)cc3)CC1)CCCC2 | 340
Cc1ccc2[nH]c(-c3ccc(C(=O)NCc4ccc(Cl)c(Cl)c4)cc3)nc2c1C | 790
COc1ccc2nccc([C@@H](O)CN3CCC(NC(=O)c4cc5cccnc5[nH]4)CC3)c2c1 | 890
CCN(CC)CCCCNc1cc(-c2[nH]c(-c3c(Cl)cccc3Cl)nc2-c2ccc3cc(OC)ccc3c2)ccn1 | 960
Cc1cccc2[nH]c(-c3ccc(-c4ccc(NC(=O)N[C@@H]5C[C@H]5c5ccccc5)cc4)cc3)nc12 | 880
CC(C)(NCc1ccc(OC(F)(F)F)cc1)c1nc(-c2ccc(Cl)c(O)c2)c(-c2ccncc2)[nH]1 | 940
CCC(C)NS(=O)(=O)c1ccc2nc(Nc3cccc(SC)c3)n(C(C)C(C)C)c2c1 (centres undefined) | 500
COc1ccc(C(=O)CC(=O)c2ccc(OC)cc2OC)c(OC)c1 | 300
CCCCCCOc1ccc(C(=O)NCCCC2CCCN(CCCCCNC(=O)C=Cc3ccc(Cl)c(Cl)c3)C2)cc1 (centres undefined) | 700
CCNc1cc(C)nc(Nc2ccc(NC(=O)Cc3ccc(OC)cc3)cc2)n1 | 1380
Cn1nc(-c2ccc(NC(=O)Nc3cc(C(F)(F)F)cc(C(F)(F)F)c3)c(F)c2)c2cnc(NCCN3CCOCC3)nc21 | 800
O=C(N[C@@H](Cc1ccccc1)C(=O)NCCN1CCCCC1)c1ccc(O)c(-c2cccc(C(F)(F)F)c2)c1 | 850
CNC(=O)c1cc(Nc2nnc(-c3ccc(C)c(S(=O)(=O)NC4CCCCC4)c3)c3ccccc23)ccc1OC | 900
Cc1cc(NC(=O)NCCN2CCC(NC(=O)c3ccc(C(F)(F)F)cc3)CC2)c2ccccc2n1 | 410
O=C(/C=C/c1ccc(Cl)cc1)NCCCCCN1CCCC(C(=O)Nc2cccc(Cl)c2)C1 (centres undefined) | 210
CCN(CC)CCOc1ccc(C(O)(C#CC(O)(c2ccc(OCCN(CC)CC)cc2)c2ccc([N+](=O)[O-])cc2)c2ccc([N+](=O)[O-])cc2)cc1 (centres undefined) | 1730
CCCCC(CCCC)CN1C(=O)C(c2ccccc2)(c2ccccc2)N=C1N | 180
CN(C)CCNCc1cccc(-c2ccc3c(Nc4ccc(Oc5ccccc5)cc4)ccnc3c2)c1 | 440
O=C(N[C@H]1CCN(Cc2ccc(OCCN3CCCC3)c3ccccc23)C1)c1ccc(Cl)c(Cl)c1 | 750
CNc1ccc(CNCc2ccc(-c3ccc(-c4nc5c(C)cccc5[nH]4)cc3)cc2)cc1 | 320
Nc1cccc(CNCc2ccc(-c3ccc(-c4nc5ccc(C(F)(F)F)cc5[nH]4)s3)cc2)c1 | 440
COc1ccc2nc3ccccc3c(NCCN3CCN(C)CC3)c2c1 | 1290

Structure (SMILES) | IC50 [nM]
CC(Cc1ccc(OCCCCOc2ccccc2)cc1)NCCCn1ccnc1 (centres undefined) | 170
CC(Cc1ccc(OCc2ccccc2)c(Cl)c1)NCC(O)c1cccc(C(F)(F)F)c1 (centres undefined) | 940
N#Cc1cccc([C@H](O)[C@@H]2CN(CCC3CCCCC3)CC[C@@]2(O)c2ccccc2)c1 | 130
O=C(CC(c1ccccc1)c1ccccc1O)N1CCOCC1 (centres undefined) | 1520
CCc1c(C(=O)NC2CCC(N3CCC(c4ccccc4C)CC3)CC2)[nH]c2ccc(OC)cc12 (centres undefined) | 810
O=C(Nc1cccc(CN2CCCN(Cc3cccc(O)c3)CC2)c1)c1ccc2ccccc2c1 | 790
Cc1noc(NC(=O)c2sc3ccccc3c2O)c1C | 850
CCCCCCSc1nnc(COc2cccc3ccccc23)n1-c1ccc(OC)cc1 | 50
Cc1cc(N2CCCC2)nc(Nc2ccc(NC(=O)c3ccccc3C)cc2)n1 | 720
O=C(C(=O)c1ccc(Nc2ccnc3cc(-c4ccccn4)ccc23)cc1)c1ccccc1 | 970
CNCc1cccc2[nH]c(-c3ccc(Cc4cc(Cl)ccc4OCC(C)C)o3)nc12 | 900
Cc1nn(-c2ccccc2)nc1C(=O)N(Cc1ccc(-c2ccc(CNCCc3ccc(S(C)(=O)=O)cc3)cn2)cc1)C(C)CN(C)C (centres undefined) | 680
Cc1[nH]c(C)c(-c2ccc(C(=O)c3ccccc3)cc2)c(=O)c1Br | 780
Cc1n[nH]c(C)c1C1CCN(CC2CCC(NC(=O)/C=C/c3ccc(Cl)c(Cl)c3)CC2)CC1 (centres undefined) | 730
C/C=C/COc1ccc2ccccc2c1CNCCCCCCCCNCc1c(OC/C=C/C)ccc2ccccc12 | 910
COc1cccc(CN2CCN(C(c3ccccc3)c3ccccc3)CC2)c1O | 780
COc1ccc(CCNCc2ccc3nc(N)c(C)cc3c2)cc1 | 990
CC(=O)c1ccc(-n2ccnc2)cc1 | 850
O=C(NCC1CCN(C/C=C/c2ccccc2)CC1)Nc1ccc(Oc2ccccc2)cc1 | 1040
FC(F)(F)c1ccc2nc(-c3ccc(-c4ccc(CNCc5cnn(-c6ccccc6)n5)cc4)s3)[nH]c2c1 | 460
Nc1nccc2ccc(-c3cccc4ncccc34)cc12 | 50
CS(=O)(=O)c1ccc2c(c1)CCN(CCC1CCC(NC(=O)C(=Cc3cccc(C#N)c3)c3ccc(-c4ccccc4)cc3)CC1)CC2 (centres undefined) | 840

Reference: PubChem BioAssay AID2305 (GlaxoSmithKline (GSK), 2010)
